Experimental data from patent US7015228B2, “4-amino-2-(2-pyridyl)pyrimidines as microbicidal active substances” (Ciba Specialty Chemicals Corporation, priority 2001, dated 2006).
Converted amounts (≈) assume the structure as drawn. Where two headings read alike, the source gives them in different places.

Tests used:
Type in all cases: cell-based
[1] = system: Escherichia coli NCTC 8196; test: Minimum inhibitory concentration (MIC) in microtitre plates; settings: for MIC: Escherichia coli, NCTC8196
Procedure: (§1) Determination of the Minimum Inhibitory Concentration (MIC Value) in Microtitre Plates
(§2) Casein-soybean flour-peptone broth for preparation of pre-cultures of test bacteria and yeast.
(§3) Mycological slant agar for the pre-culture of moulds
(§4) Examples of Test Organisms:
(§5) The test substances are pre-dissolved in dimethyl sulfoxide (DMSO) and tested in a dilution series of 1:2.
(§6) Bacteria and yeast are cultured overnight in CASO broth, the mould is cultured overnight on mycological slant agar, and washed off using 10 ml of 0.85% sodium chloride solution (+0.1% Triton X-100).
(§7) All the test organisms are adjusted to an organism count of 1–5×10^6 CFU/ml using 0.85% sodium chloride solution.
(§8) The test substances are pre-pipetted into microtitre plates in amounts of 8 μl per well.
(§9) Pre-diluted organism suspensions are diluted 1:100 in CASO broth (bacteria and yeast) or Sabouraud 2% glucose broth (mould) and are added in amounts of 192 μl per well to the test substances.
(§10) The test batches are incubated for 48 hours at 37° C. (bacteria and yeast) or for 5 days at 28° C. (mould).
(§11) After incubation, the growth is determined on the basis of the turbidity of the test batches (optical density) at 620 nm in a microplate reader.
(§12) The minimum inhibitory concentration (MIC value) is the concentration of substance at which there is found (compared to the growth of the control) an appreciable inhibition of growth (≦20% growth) of the test organisms.
(§13) One microtitre plate is used for each test organism and substance concentration. All the substances are tested in duplicate.

[2] = system: Staphylococcus hominis DMS 20328; test: as above; settings: Table 7, 48 hours at 37° C., MIC = ≦20% growth compared to control; for MIC: Staphylococcus hominis, DMS20328, read-out: Minimum inhibitory concentration (MIC) S. hominis
Procedure: as §1, §2, §3, §4, §5, §6, §7, §8, §9, §10, §11, §12, §13

[3] = system: S. epidermidis ATCC 12228; test: Minimum inhibitory concentration (MIC), further microorganisms; settings: Table 8, * = significant inhibition of growth, but not complete inhibition; for MIC: Staphylococcus epidermidis, ATCC12228
Procedure: as §1, §2, §3, §5, §6, §7, §8, §9, §10, §11, §12, §13

[4] = system: Epidermophyton floccosum DSM 10709; test: as above; settings: Table 8, * = significant inhibition of growth, but not complete inhibition; for MIC: Epidermophyton floccosum, DSM10709
Procedure: as §1, §2, §3, §5, §6, §7, §8, §9, §10, §11, §12, §13

[5] = system: Micrococcus luteus ATCC 9341; test: as above; settings: Table 8, * = significant inhibition of growth, but not complete inhibition; for MIC: Micrococcus luteus, ATCC9341
Procedure: as §1, §2, §3, §5, §6, §7, §8, §9, §10, §11, §12, §13

[6] = system: Staphylococcus aureus ATCC 9144; test: as above; settings: Table 8, * = significant inhibition of growth, but not complete inhibition; for MIC: Staphylococcus aureus, ATCC9144
Procedure: as §1, §2, §3, §5, §6, §7, §8, §9, §10, §11, §12, §13

[7] = system: Trichophyton mentagrophytes ATCC 9533; test: as above; settings: Table 8, * = significant inhibition of growth, but not complete inhibition; for MIC: Trichophyton mentagrophytes, ATCC9533
Procedure: as §1, §2, §3, §5, §6, §7, §8, §9, §10, §11, §12, §13

[8] = system: Enterococcus hirae ATCC 10541; test: as above; settings: Table 8, * = significant inhibition of growth, but not complete inhibition; for MIC: Enterococcus hirae, ATCC10541
Procedure: as §1, §2, §3, §5, §6, §7, §8, §9, §10, §11, §12, §13

[9] = Table 7, 48 hours at 37° C., MIC = ≦20% growth compared to control
[10] = Table 8, * = significant inhibition of growth, but not complete inhibition
[11] = Table 7, 48 hours at 37° C., MIC = ≦20% growth compared to control, read-out: Minimum inhibitory concentration (MIC) E. coli
[12] = Table 8, * = significant inhibition of growth, but not complete inhibition, read-out: Minimum inhibitory concentration (MIC) E. coli NCTC 8196

Row | Structure (SMILES) | Minimum inhibitory concentration (MIC) E. coli [1, 9] [µg/mL] | Minimum inhibitory concentration (MIC) E. coli NCTC 8196 [1, 10] [µg/mL] | Minimum inhibitory concentration (MIC) S. hominis [2] [µg/mL] | Minimum inhibitory concentration (MIC) S. epidermidis ATCC 12228 [3] | Minimum inhibitory concentration (MIC) Epidermophyton floccosum DSM 10709 [4] | Minimum inhibitory concentration (MIC) Micrococcus luteus ATCC 9341 [5] [µg/mL] | Minimum inhibitory concentration (MIC) Staphylococcus aureus ATCC 9144 [6] | Minimum inhibitory concentration (MIC) Trichophyton mentagrophytes ATCC 9533 [7] | Minimum inhibitory concentration (MIC) Enterococcus hirae ATCC 10541 [8] [µg/mL] | MIC [1, 11] [µg/mL] | MIC [1, 12] [µg/mL] | MIC [2] [µg/mL] | MIC [3] [µg/mL] | MIC [4] [µg/mL] | MIC [5] [µg/mL] | MIC [6] [µg/mL] | MIC [7] [µg/mL] | MIC [8] [µg/mL]
1 | CCCCCCCCCCNc1nc(-c2ccccn2)nc(C)c1CC [compound 11] | >120 | >60 | 3.75 (≈ 10.6 µM) | 7.5 µg/mL (≈ 21.2 µM) | >60 µg/mL | 1.9 (≈ 5.36 µM) | 7.5 µg/mL (≈ 21.2 µM) | >60 µg/mL | 7.5 (≈ 21.2 µM) |  |  |  |  |  |  |  |  | 
2 | CCCCCCCCCCNc1cc(C)nc(-c2ccccn2)n1 [compound 23] | >120 | >60 | 3.75 (≈ 11.5 µM) | 7.5 µg/mL (≈ 23 µM) | *15 μg/mL | <0.5 | 7.5 µg/mL (≈ 23 µM) | 15 µg/mL (≈ 45.9 µM) | 3.75 (≈ 11.5 µM) |  |  |  |  |  |  |  |  | 
3 | CCCCCCCNc1cc(C(F)(F)F)nc(-c2ccccn2)n1 [compound 32] | >120 | >60 | 3.75 (≈ 11.1 µM) | 7.5 µg/mL (≈ 22.2 µM) | *60 μg/mL | >0.5 | 15 µg/mL (≈ 44.3 µM) | >60 µg/mL | 7.5 (≈ 22.2 µM) |  |  |  |  |  |  |  |  | 
4 | CCCCCCCCNc1cc(C(F)(F)F)nc(-c2ccccn2)n1 [compound 33] | >80 | >60 | 2.5 (≈ 7.09 µM) | 3.75 µg/mL (≈ 10.6 µM) | >60 µg/mL | <0.5 | 15 µg/mL (≈ 42.6 µM) | >60 µg/mL | 15 (≈ 42.6 µM) |  |  |  |  |  |  |  |  | 
5 | CCCCCCCCCNc1cc(C(F)(F)F)nc(-c2ccccn2)n1 [compound 34] | >120 | >60 | 3.75 (≈ 10.2 µM) | *60 μg/mL | >60 µg/mL | >0.5 | >60 µg/mL | >60 µg/mL | 60 (≈ 164 µM) |  |  |  |  |  |  |  |  | 
6 | CCCCCCCCCCNc1cc(C(F)(F)F)nc(-c2ccccn2)n1 [compound 35] |  |  |  |  |  |  |  |  |  | > 120 | > 60 | 3.75 (≈ 9.86 µM) | 7.5 (≈ 19.7 µM) | > 60 | < 0.5 | 7.5 (≈ 19.7 µM) | > 60 | 7.5 (≈ 19.7 µM)
7 | CCCCCCCCCCCCCCCCNc1cc(C(F)(F)F)nc(-c2ccccn2)n1 [compound 37] |  |  |  |  |  |  |  |  |  | > 120 | > 30 | > 120 | 7.5 (≈ 16.1 µM) | > 60 | 1 (≈ 2.15 µM) | 15 (≈ 32.3 µM) | > 60 | 30 (≈ 64.6 µM)
8 | CC(C)c1cc(NCCCCCCCCCCCCN)nc(-c2ccccn2)n1 [compound 43] | 60 (≈ 151 µM) | >60 | 7.5 (≈ 18.9 µM) | *15 μg/mL | >60 µg/mL | 3.75 (≈ 9.43 µM) | 30 µg/mL (≈ 75.5 µM) | >60 µg/mL | 30 (≈ 75.5 µM) |  |  |  |  |  |  |  |  | 
9 | CCCCCCCNc1cc(C(C)C)nc(-c2ccccn2)n1 [compound 44] |  |  |  |  |  |  |  |  |  | > 120 | > 30 | 3.75 (≈ 12 µM) | 15 (≈ 48 µM) | 60 (≈ 192 µM) | 1 (≈ 3.2 µM) | 15 (≈ 48 µM) | > 60 | 15 (≈ 48 µM)
10 | CCCCCCCCNc1cc(C(C)C)nc(-c2ccccn2)n1 [compound 45] | >120 | >30 | 3.75 (≈ 11.5 µM) | 7.5 µg/mL (≈ 23 µM) | >60 µg/mL | 3.75 (≈ 11.5 µM) | 7.5 µg/mL (≈ 23 µM) | >60 µg/mL | 3.75 (≈ 11.5 µM) |  |  |  |  |  |  |  |  | 
11 | CCCCCCCCCNc1cc(C(C)C)nc(-c2ccccn2)n1 [compound 46] | >120 | >60 | 3.75 (≈ 11 µM) | 30 µg/mL (≈ 88.1 µM) | 60 µg/mL (≈ 176 µM) | 3.75 (≈ 11 µM) | 30 µg/mL (≈ 88.1 µM) | >60 µg/mL | 30 (≈ 88.1 µM) |  |  |  |  |  |  |  |  | 
12 | CCCCCCCCCCNc1cc(C(C)C)nc(-c2ccccn2)n1 [compound 47] |  |  |  |  |  |  |  |  |  | > 80 | > 60 | 5 (≈ 14.1 µM) | 3.75 (≈ 10.6 µM) | 60 (≈ 169 µM) | < 0.5 | 7.5 (≈ 21.2 µM) | 60 (≈ 169 µM) | 3.75 (≈ 10.6 µM)
13 | CCCCCCCNc1cc(C(C)(C)C)nc(-c2ccccn2)n1 [compound 56] | >120 | >60 | 3.75 (≈ 11.5 µM) | 3.75 µg/mL (≈ 11.5 µM) | *30 μg/mL | <0.5 | 3.75 µg/mL (≈ 11.5 µM) | *30 μg/mL | 1.9 (≈ 5.82 µM) |  |  |  |  |  |  |  |  | 
14 | CCCCCCCCNc1cc(C(C)(C)C)nc(-c2ccccn2)n1 [compound 57] | >120 | >60 | 3.75 (≈ 11 µM) | 1.9 µg/mL (≈ 5.58 µM) | 60 µg/mL (≈ 176 µM) | <0.5 | 1.9 µg/mL (≈ 5.58 µM) | *60 μg/mL | 1.0 (≈ 2.94 µM) |  |  |  |  |  |  |  |  | 
15 | CCCCCCCCCNc1cc(C(C)(C)C)nc(-c2ccccn2)n1 [compound 58] | >120 | >60 | 3.75 (≈ 10.6 µM) | 1.9 µg/mL (≈ 5.36 µM) | >60 µg/mL | <0.5 | *1.9 μg/mL | >60 µg/mL | 7.5 (≈ 21.2 µM) |  |  |  |  |  |  |  |  | 
